# Test results from doi:10.1101/2025.10.14.682402v1 (biorxiv, 2025).
# Experiments:
# kinase domain of ULK2 = target: T1, kinase domain of ULK2 (Homo sapiens, UniProt Q8IYT8); conditions: binder
# T1 sequence (Q8IYT8 1-276 limits assumed): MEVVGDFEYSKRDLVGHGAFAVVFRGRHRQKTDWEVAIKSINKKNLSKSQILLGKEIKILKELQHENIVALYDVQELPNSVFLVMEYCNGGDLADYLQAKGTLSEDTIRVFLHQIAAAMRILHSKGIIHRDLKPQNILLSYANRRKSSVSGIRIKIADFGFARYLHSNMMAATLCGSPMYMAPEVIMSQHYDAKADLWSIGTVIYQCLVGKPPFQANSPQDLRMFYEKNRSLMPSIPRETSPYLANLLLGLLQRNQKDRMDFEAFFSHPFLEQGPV
# ULK1 [1] = target: T2, ULK1 (Homo sapiens, UniProt O75385); experiment: ADP-Glo kinase assay; type: biochemical
# T2 sequence (O75385 1-1050): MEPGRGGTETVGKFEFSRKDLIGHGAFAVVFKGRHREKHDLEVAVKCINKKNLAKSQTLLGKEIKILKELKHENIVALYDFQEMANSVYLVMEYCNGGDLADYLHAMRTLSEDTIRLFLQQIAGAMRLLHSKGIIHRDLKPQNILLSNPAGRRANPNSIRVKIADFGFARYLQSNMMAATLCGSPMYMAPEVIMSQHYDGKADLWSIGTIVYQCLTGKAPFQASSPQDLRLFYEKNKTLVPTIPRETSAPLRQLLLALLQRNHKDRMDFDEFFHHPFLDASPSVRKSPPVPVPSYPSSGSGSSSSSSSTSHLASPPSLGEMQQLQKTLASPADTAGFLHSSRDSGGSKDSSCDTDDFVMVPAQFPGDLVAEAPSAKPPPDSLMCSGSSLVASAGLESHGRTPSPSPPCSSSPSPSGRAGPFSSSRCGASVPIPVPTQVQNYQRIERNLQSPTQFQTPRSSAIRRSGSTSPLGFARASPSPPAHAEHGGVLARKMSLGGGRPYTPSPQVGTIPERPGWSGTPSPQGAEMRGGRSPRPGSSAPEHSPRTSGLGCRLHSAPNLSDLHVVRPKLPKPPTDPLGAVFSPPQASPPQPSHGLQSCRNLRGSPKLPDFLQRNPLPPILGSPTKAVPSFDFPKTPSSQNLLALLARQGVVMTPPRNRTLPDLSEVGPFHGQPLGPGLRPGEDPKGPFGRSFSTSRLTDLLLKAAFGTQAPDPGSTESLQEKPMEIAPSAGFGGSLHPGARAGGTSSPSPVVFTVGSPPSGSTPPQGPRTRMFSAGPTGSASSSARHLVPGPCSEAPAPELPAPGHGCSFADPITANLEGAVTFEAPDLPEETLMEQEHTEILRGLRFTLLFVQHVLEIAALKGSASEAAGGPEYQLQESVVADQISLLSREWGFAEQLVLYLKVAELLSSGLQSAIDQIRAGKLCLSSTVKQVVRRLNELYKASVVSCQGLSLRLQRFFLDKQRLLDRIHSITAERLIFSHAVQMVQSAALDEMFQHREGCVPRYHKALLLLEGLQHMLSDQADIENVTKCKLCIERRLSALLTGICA
# ULK2 = target: T3, ULK2 (Homo sapiens, UniProt Q8IYT8); experiment: biochemical
# T3 sequence (Q8IYT8 1-1036): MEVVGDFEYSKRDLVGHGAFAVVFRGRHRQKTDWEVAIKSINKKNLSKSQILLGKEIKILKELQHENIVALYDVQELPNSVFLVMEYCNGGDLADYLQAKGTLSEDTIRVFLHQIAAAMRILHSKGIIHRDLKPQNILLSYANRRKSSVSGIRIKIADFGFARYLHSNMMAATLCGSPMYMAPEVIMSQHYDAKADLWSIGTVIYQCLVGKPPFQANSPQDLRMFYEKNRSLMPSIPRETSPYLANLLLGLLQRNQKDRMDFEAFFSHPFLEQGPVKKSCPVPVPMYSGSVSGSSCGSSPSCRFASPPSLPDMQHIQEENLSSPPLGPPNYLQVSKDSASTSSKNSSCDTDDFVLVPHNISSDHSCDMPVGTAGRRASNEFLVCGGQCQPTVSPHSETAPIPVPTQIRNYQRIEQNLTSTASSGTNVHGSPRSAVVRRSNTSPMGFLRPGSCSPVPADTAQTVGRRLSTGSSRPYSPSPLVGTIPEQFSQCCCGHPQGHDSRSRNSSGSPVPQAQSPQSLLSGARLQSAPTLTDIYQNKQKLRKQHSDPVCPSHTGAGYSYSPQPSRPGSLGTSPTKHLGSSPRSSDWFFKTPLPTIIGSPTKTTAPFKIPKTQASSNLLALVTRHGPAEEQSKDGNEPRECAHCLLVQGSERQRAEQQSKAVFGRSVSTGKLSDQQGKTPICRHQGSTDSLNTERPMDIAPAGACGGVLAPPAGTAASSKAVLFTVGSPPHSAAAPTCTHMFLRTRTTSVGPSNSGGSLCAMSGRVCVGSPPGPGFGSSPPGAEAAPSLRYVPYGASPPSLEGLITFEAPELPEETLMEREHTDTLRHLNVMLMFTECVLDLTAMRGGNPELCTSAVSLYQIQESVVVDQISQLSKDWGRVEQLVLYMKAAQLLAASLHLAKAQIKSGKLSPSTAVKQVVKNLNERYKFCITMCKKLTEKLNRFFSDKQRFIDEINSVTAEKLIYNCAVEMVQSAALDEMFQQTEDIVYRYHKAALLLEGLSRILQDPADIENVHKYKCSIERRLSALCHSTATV
# kinase domain of ULK1 = target: T4, kinase domain of ULK1 (Homo sapiens, UniProt O75385); conditions: binder
# T4 sequence (O75385 1-283 limits assumed): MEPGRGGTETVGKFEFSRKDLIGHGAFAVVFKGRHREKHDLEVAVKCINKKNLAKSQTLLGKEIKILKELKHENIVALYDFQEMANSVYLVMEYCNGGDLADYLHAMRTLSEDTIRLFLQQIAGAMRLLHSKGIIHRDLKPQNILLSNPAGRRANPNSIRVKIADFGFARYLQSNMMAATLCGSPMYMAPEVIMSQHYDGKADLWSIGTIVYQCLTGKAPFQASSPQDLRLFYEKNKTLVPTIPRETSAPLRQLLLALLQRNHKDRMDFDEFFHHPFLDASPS
# ULK1 [2] = target: T2, ULK1; experiment: biochemical
# ULK1 (NanoBRET) = target: T5, ULK1 (NanoBRET) (Homo sapiens, UniProt O75385); experiment: NanoBRET cellular target engagement; type: cell-based
# T5 sequence (O75385 1-1050): T2 sequence (O75385 1-1050)
Compound,ULK2 PTS (ºC) (kinase domain of ULK2),IC50 (ULK1 [1]),IC50 (ULK2),ULK1 PTS (ºC) (kinase domain of ULK1),IC50 (ULK1 [2]),IC50 (ULK1 (NanoBRET))
"CNC(=O)c1ccccc1Nc1nc(Nc2ccc(N3CCOCC3)cc2OC)ncc1Br [6b, 2-(5-Bromo-2-(2-methoxy-4-morpholinophenylamino)pyrimidin-4-ylamino)-N-methylbenzamide]",4.13 ± 0.02 °C,141 nM,> 3000 nM,5.60 ± 0.23 °C,–,–
"CNC(=O)c1ccccc1Nc1nc(Nc2ccc3c(c2)CC(=O)N3)ncc1Cl [6f, 2-(5-Chloro-2-(2-oxoindolin-5-ylamino)pyrimidin-4-ylamino)-N-methylbenzamide]",0.48 ± 0.06 °C,21 nM,> 3000 nM,0.20 ± 0.13 °C,–,–
"CNC(=O)c1ccccc1Nc1nc(Nc2ccc3[nH]ccc3c2)ncc1Cl [6g, 2-(2-(1H-indol-5-ylamino)-5-chloropyrimidin-4-ylamino)-N-methylbenzamide]",5.86 ± 0.12 °C,–,> 3000 nM,6.78 ± 0.19 °C,94 ± 43 nM,–
"CNC(=O)c1ccccc1Nc1nc(Nc2cc(OC)ccc2C)ncc1Cl [6k, 2-(5-Chloro-2-(5-methoxy-2-methylphenylamino)pyrimidin-4-ylamino)-N-methylbenzamide]",3.38 ± 0.14 °C,292 nM,893 ± 454 nM,5.75 ± 0.12 °C,–,–
"CNC(=O)c1ccccc1Nc1nc(Nc2cc(OC)ccc2C)ncc1C(F)(F)F [6l, 2-(2-(5-Methoxy-2-methylphenylamino)-5-(trifluoromethyl)pyrimidin-4-ylamino)-N-methylbenzamide]",7.08 ± 0.25 °C,38 nM,1960 ± 101 nM,8.90 ± 0.17 °C,–,–
"CNC(=O)c1ccccc1Nc1nc(Nc2cc(OC)c(OC)c(OC)c2)ncc1Cl [6o, 2-(5-Chloro-2-(3,4,5-trimethoxyphenylamino)pyrimidin-4-ylamino)-N-methylbenzamide]",12.01 ± 0.05 °C,8 nM,–,14.25 ± 0.11 °C,–,4.05 nM
"CNC(=O)c1ccccc1Nc1nc(Nc2cc(N3CCOCC3)cc(N3CCOCC3)c2)ncc1Br [6t, 2-(5-Bromo-2-(3,5-dimorpholinophenylamino)pyrimidin-4-ylamino)-N-methylbenzamide]",16.23 ± 0.15 °C,–,59 ± 6 nM,16.83 ± 0.12 °C,8 ± 1 nM,–
"O=C1CCc2cc(Nc3ncc(C(F)(F)F)c(NC4CC4)n3)ccc2N1 [SBP-7501, reference compound]",–,–,–,–,–,167 ± 31 nM
SBP-7455 [reference compound],–,–,–,–,–,328 ± 43 nM

# The next lines start with the values.
ULK2 PTS (ºC) (kinase domain of ULK2),IC50 (ULK1 [1]),IC50 (ULK2),ULK1 PTS (ºC) (kinase domain of ULK1),IC50 (ULK1 [2]),IC50 (ULK1 (NanoBRET)),Compound
6.50 ± 0.09 °C,62 nM,1340 ± 198 nM,6.55 ± 0.12 °C,–,–,"CNC(=O)c1ccccc1Nc1nc(Nc2ccc(N3CCOCC3)cc2OC)ncc1C(F)(F)F [6c, 2-(2-(2-Methoxy-4-morpholinophenylamino)-5-(trifluoromethyl)pyrimidin-4-ylamino)-N-methylbenzamide]"
7.49 ± 0.46 °C,–,> 3000 nM,8.08 ± 0.53 °C,6 ± 1 nM,–,"CNC(=O)c1ccccc1Nc1nc(Nc2ccc3[nH]ccc3c2)ncc1Br [6h, 2-(2-(1H-indol-5-ylamino)-5-bromopyrimidin-4-ylamino)-N-methylbenzamide]"
2.45 ± 0.20 °C,–,> 3000 nM,3.37 ± 0.38 °C,2700 ± 1780 nM,–,"CNC(=O)c1ccccc1Nc1nc(Nc2cc3c(cc2C)OCO3)ncc1Cl [6i, 2-(5-Chloro-2-(6-methylbenzo[d][1,3]dioxol-5-ylamino)pyrimidin-4-ylamino)-N-methylbenzamide]"
4.43 ± 0.33 °C,218 nM,> 3000 nM,6.05 ± 0.13 °C,–,–,"CNC(=O)c1ccccc1Nc1nc(Nc2ccc3c(c2)OCCO3)ncc1Cl [6j, 2-(5-Chloro-2-(2,3-dihydrobenzo[b][1,4]dioxin-6-ylamino)pyrimidin-4-ylamino)-N-methylbenzamide]"
4.28 ± 0.19 °C,32 nM,> 3000 nM,6.78 ± 0.13 °C,–,–,"CNC(=O)c1ccccc1Nc1nc(Nc2cc(OC)ccc2C)ncc1Br [6m, 2-(5-Bromo-2-(5-methoxy-2-methylphenylamino)pyrimidin-4-ylamino)-N-methylbenzamide]"
1.38 ± 0.33 °C,–,> 3000 nM,6.53 ± 0.87 °C,50 ± 25 nM,–,"CNC(=O)c1ccccc1Nc1nc(Nc2cccc(OC)c2)ncc1Cl [6n, 2-(5-Chloro-2-(3-methoxyphenylamino)pyrimidin-4-ylamino)-N-methylbenzamide]"
16.70 ± 0.05 °C,–,19 ± 3 nM,17.28 ± 0.06 °C,15 ± 1 nM,17 nM,"CNC(=O)c1ccccc1Nc1nc(Nc2cc(N3CCOCC3)cc(N3CCOCC3)c2)ncc1C(F)(F)F [6r, 2-(2-(3,5-dimorpholinophenylamino)-5-(trifluoromethyl)pyrimidin-4-ylamino)-N-methylbenzamide]"
11.50 ± 0.27 °C,–,180 ± 9 nM,13.28 ± 0.40 °C,38 ± 4 nM,–,"CNC(=O)c1ccccc1Nc1nc(Nc2cc(N3CCOCC3)cc(N3CCOCC3)c2)ncc1Cl [6s, 2-(5-Chloro-2-(3,5-dimorpholinophenylamino)pyrimidin-4-ylamino)-N-methylbenzamide]"
–,–,–,–,–,47 ± 11 nM,"FC(F)(F)c1cnc(Nc2ccc3c(c2)CCNC3)nc1NC1CC1 [SBP-5147, reference compound]"
